Experimental data: patent publication US11707462B2, “Checkpoint kinase 1 (CHK1) inhibitors and uses thereof” (Boundless Bio, Inc., priority 2021, dated 2023)

Assays:
[1] = target: T1, Full-length human Chk1 protein (Homo sapiens, UniProt O14757); test: Kinase HTRF biochemical assay (HTRF KinEASE), Chk1 enzyme activity; details: full-length human Chk1, ATP 1 mM, 60 minutes at room temperature
T1 construct: purchased Carna Biosciences, Inc. 02-117
T1 sequence (O14757 1-476): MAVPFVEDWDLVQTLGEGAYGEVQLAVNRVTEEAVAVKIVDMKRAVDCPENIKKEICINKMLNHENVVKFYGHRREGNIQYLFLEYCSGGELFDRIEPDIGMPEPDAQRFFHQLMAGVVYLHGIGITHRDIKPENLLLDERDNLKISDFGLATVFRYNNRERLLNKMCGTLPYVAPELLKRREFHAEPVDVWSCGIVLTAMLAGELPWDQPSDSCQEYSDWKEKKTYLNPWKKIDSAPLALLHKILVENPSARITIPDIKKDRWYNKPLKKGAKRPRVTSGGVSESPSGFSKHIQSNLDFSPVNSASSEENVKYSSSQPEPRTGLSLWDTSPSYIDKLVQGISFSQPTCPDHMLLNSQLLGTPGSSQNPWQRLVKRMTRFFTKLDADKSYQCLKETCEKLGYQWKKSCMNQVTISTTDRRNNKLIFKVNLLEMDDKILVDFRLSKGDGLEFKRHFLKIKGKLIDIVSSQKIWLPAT
Procedure, shortened: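 Full-length human Chk1 (0.012 ng/μL) in buffer with 5 mM MgCl2 and 1 mM DTT, preincubated with compound 10 min at room temperature; reaction with 120 nM biotinylated STK substrate 1 and 1 mM ATP for 60 min at room temperature. HTRF detection via cryptate antibody/streptavidin-XL665; IC50 from 10-point duplicate curves.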

p-CHK1 (Ser345) = test: AlphaLISA SureFire Ultra p-CHK1 (Ser345) cellular assay in HT29 cells; type: cell-based; details: Homo sapiens, HT-29, 16 h at 37° C.
Procedure, shortened: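 HT29 cells treated with compounds over a 10-point, 3-fold dilution series for 16 h at 37° C., then lysed; p-CHK1 (Ser345) in lysates measured by AlphaLISA SureFire Ultra (acceptor and donor steps 1 h each at room temperature). IC50 from dose-response curve fits.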

| Compound | IC50 [1] | IC50 (p-CHK1 (Ser345)) |
| --- | --- | --- |
| CN[C@H]1C[C@H](Oc2cccc(OC)c2-c2cc(Nc3cnc(C#N)cn3)n[nH]2)C1 [Example 1-16, 5-((5-(2-methoxy-6-((1r,3r)-3-(methylamino)cyclobutoxy)phenyl)-1H-pyrazol-3-yl)amino)pyrazine-2-carbonitrile] | 0.01 to 0.1 µM | ≤ 0.05 µM |
| COc1cc(Cl)cc(O[C@@H]2CC[C@H](N)C2)c1-c1cc(Nc2cnc(C#N)cn2)n[nH]1 [Example 1-29, 5-((5-(2-(((1R,3S)-3-aminocyclopentyl)oxy)-4-chloro-6-methoxyphenyl)-1H-pyrazol-3-yl)amino)pyrazine-2-carbonitrile] | ≤ 0.01 µM | 0.1 to 0.5 µM |
| COc1cccc(O[C@H]2CC[C@@H]2N)c1-c1cc(Nc2cnc(C#N)cn2)n[nH]1 [Example 3-5, 5-((5-(2-((1S,2S)-2-aminocyclobutoxy)-6-methoxyphenyl)-1H-pyrazol-3-yl)amino)pyrazine-2-carbonitrile] | ≤ 0.01 µM | ≤ 0.05 µM |
| COc1c(F)ccc(O[C@H]2CC[C@H](N)CC2)c1-c1cc(Nc2cnc(C#N)cn2)n[nH]1 [Example 1-20, 5-((5-(6-(((1r,4r)-4-aminocyclohexyl)oxy)-3-fluoro-2-methoxyphenyl)-1H-pyrazol-3-yl)amino)pyrazine-2-carbonitrile] | 0.01 to 0.1 µM | 0.1 to 0.5 µM |
| CN[C@H]1CC[C@H](Oc2cccc(OC)c2-c2cc(Nc3cnc(C#N)cn3)n[nH]2)CC1 [Example 1-45, 5-((5-(2-methoxy-6-(((1r,4r)-4-(methylamino)cyclohexyl)oxy)phenyl)-1H-pyrazol-3-yl)amino)pyrazine-2-carbonitrile] | ≤ 0.01 µM | 0.05 to 0.1 µM |
| Cc1ccc(O[C@H]2C[C@H](N)C2)c(-c2cc(Nc3cnc(C#N)cn3)n[nH]2)n1 [Example 1-62, 5-((5-(3-((1r,3r)-3-aminocyclobutoxy)-6-methylpyridin-2-yl)-1H-pyrazol-3-yl)amino)pyrazine-2-carbonitrile] | 0.01 to 0.1 µM | 0.1 to 0.5 µM |
| N#Cc1cnc(Nc2cc(-c3ccccc3O[C@H]3CC[C@H](N)CC3)[nH]n2)cn1 [Example 1-51, 5-((5-(2-(((1r,4r)-4-aminocyclohexyl)oxy)phenyl)-1H-pyrazol-3-yl)amino)pyrazine-2-carbonitrile] | 0.01 to 0.1 µM | > 1 µM |

Next, values leading:

| IC50 [1] | IC50 (p-CHK1 (Ser345)) | Compound |
| --- | --- | --- |
| 0.1 to 0.5 µM | > 1 µM | COc1ccc(C)c(O[C@@H]2CC[C@H](N)C2)c1-c1cc(Nc2cnc(C#N)cn2)n[nH]1 [Example 4-3, 5-((5-(2-(((1R,3S)-3-aminocyclopentyl)oxy)-6-methoxy-3-methylphenyl)-1 H-pyrazol-3-yl)amino)pyrazine-2-carbonitrile] |
| 0.1 to 0.5 µM | > 1 µM | N#Cc1cnc(Nc2cc(-c3cccc(F)c3O[C@@H]3CC[C@H](N)C3)[nH]n2)cn1 [Example 3-13, 5-((5-(2-(((1R,3S)-3-aminocyclopentyl)oxy)-3-fluorophenyl)-1H-pyrazol-3-yl)amino)pyrazine-2-carbonitrile] |
| ≤ 0.01 µM | ≤ 0.05 µM | Cc1cc(O[C@@H]2CC[C@H](N)C2)c(-c2cc(Nc3cnc(C#N)cn3)n[nH]2)nc1C [Example 3-48, 5-((5-(3-(((1R,3S)-3-aminocyclopentyl)oxy)-5,6-dimethylpyridin-2-yl)-1H-pyrazol-3-yl)amino)pyrazine-2-carbonitrile] |
| ≤ 0.01 µM | ≤ 0.05 µM | CN[C@@H]1CC[C@@H](Oc2cc(C)cc(F)c2-c2cc(Nc3cnc(C#N)cn3)n[nH]2)C1 [Example 5-3, 5-((5-(2-fluoro-4-methyl-6-(((1R,3R)-3-(methylamino)cyclopentyl)oxy)phenyl)-1H-pyrazol-3-yl)amino)pyrazine-2-carbonitrile] |
